Measured values as given in US10736865B2, “Pharmaceutical formulations comprising 9-cis-retinyl esters in a lipid vehicle” (RETINAGENIX THERAPEUTICS, INC., priority 2009, dated 2020).

What was measured:
Rpe65^−/− mice [1] = details: mouse, in vivo
Protocol: (§3) Electroretinogram (ERG)—ERGs were recorded on anesthetized mice as described in, e.g., Maeda A, et al. Role of photoreceptor-specific retinol dehydrogenase in the retinoid cycle in vivo.
(§4) Briefly, mice first were dark-adapted overnight prior to recording. Then under a safety light, mice were anesthetized by intraperitoneal injection of 20 μl/g body weight of 6 mg/ml ketamine and 0.44 mg/ml xylazine diluted with 10 mM sodium phosphate, pH 7.2, containing 100 mM NaCl. Pupils were dilated with 1% tropicamide. A contact lens electrode was placed on the eye and a reference electrode and ground electrode were positioned on the ear and tail, respectively. ERGs were recorded with the universal testing and electrophysiologic system (UTAS) E-3000 (LKC Technologies, Inc.).
(§5) Single-flash recording—White light flash stimuli were employed with a range of intensities (from −3.7 to 2.8 log cd·s·m^·2), and flash durations were adjusted according to intensity (from 20 μs to 1 ms). Two to five recordings were made at sufficient intervals between flash stimuli (from 10 s to 10 min) to allow mice to recover. Typically, four to eight animals were used for recording each point. The one-way ANOVA test was used for statistical analysis of responses.
To test this directly, 5-week-old Rpe65^−/− mice were gavaged daily with 9-cis-R-Ac in soybean oil at doses of 1, 4, or 12.5 mg/kg for 14 days. […]

[2] = Retinoid analyses of eye and liver after 8-week regimens; type: in vivo, Rpe65^−/− mice; details: 8-week intermittent and daily regimens
Protocol: (§1) Analyses of Retinoic Acid and Non-polar Retinoids—All experimental procedures related to extraction, retinoid derivatization and separation of retinoids were done under dim red light provided by a Kodak No. 1 safelight filter (transmittance>560 nm). Retinoic acid extraction from liver was performed as formerly described in, e.g., Batten M L. et al. supra. Analyses of polar retinoids in plasma, eye and liver were performed with an Agilent 1100 HPLC and two tandem normal phase columns: a Varian Microsorb Silica 3 μm, 4.6×100 mm (Varian, Palo Alto, Calif.) and an Ultrasphere-Si, 5 μm, 4.6×250 mm column (Aleman T S, et al. supra). An isocratic normal phase system of hexane: 2-propanol:glacial acetic acid (1000:4.3:[…]; v/v/v) was used for elution at a flow rate of 1 ml/min at 20° C. with detection at 355 nm. Calibration was done with standards of all-trans-retinoic acid and 9-cis-retinoic acid purchased from Sigma-Aldrich. Analyses of non-polar retinoids in plasma, eye and liver were carried out by normal phase HPLC (Ultrasphere-Si, 5 μm, 4.6×250 mm, Beckman, Fullerton, Calif.) with 10% ethyl acetate and 90% hexane at a flow rate of 1.4 ml/min with detection at 325 nm by an HP1100 HPLC with a diode array detector and HP Chemstation A.03.03 software.
(§2) The dosing regimens are illustrated in FIG. 7.

[3] = Retinoid levels in eyes and liver after 14 days of daily dosing; type: in vivo, Rpe65^−/− and C57Bl/6 mice
Protocol: as §1

[4] = Clinical side effects after single doses of 9-cis-R-Ac; type: in vivo, Rpe65^−/− mice; details: single doses up to 50 mg/kg in soybean oil
Protocol: Single doses (2-50 mg/kg) of 9-cis-R-Ac in soybean oil were administered to 5-week-old Rpr65Rpe65^−/− mice to test whether the pre-prodrug 9-cis-R-Ac was capable of delivering artificial chromophore to the eye.
(§6) Following dark-adaption for 3 days post-gavage, scotopic single flash ERGs were recorded and eyes were collected to assess 9-cis-retinal levels.

[5] = 9-cis-retinal levels in the eye after 3 daily doses; type: in vivo, Rpe65^−/− mice
Protocol: as §1

Rpe65^−/− mice [6] = details: mouse, in vivo; remark: listed apart in the source
Protocol: as §3, §4
(§7) Single-flash recording—White light flash stimuli were employed with a range of intensities (from −3.7 to 2.8 log cd·s·m^·2), and flash durations were adjusted according to intensity (from 20 μs to 1 ms). Two to five recordings were made at sufficient intervals between flash stimuli (from 10 s to 10 min) to allow mice to recover. Typically, four to eight animals were used for recording each point. The one-way ANOVA test was used for statistical analysis of responses. […]

[7] = Retinoid levels in eyes after single doses of 9-cis-R-Ac; type: in vivo, Rpe65^−/− mice
Protocol: as §1

Rpe65^−/− mice [8] = details: mouse, in vivo; remark: listed apart in the source
Protocol: as §3, §4, §7, §6

Rpe65^−/− mice [9] = details: mouse, in vivo; remark: listed apart in the source
Protocol: as §4, §5
Rpe65^−/− mice were split into two groups (an intermittent group and a daily group), each treated for a total of 8 weeks with 1 or 4 mg/kg of 9-cis-R-Ac. […] ERGs were recorded at day 28 and again at day 56, after which tissues were collected for retinoid analyses of the eye and liver and histology of the eye.

Rpe65^−/− mice [10] = experiment: Retinal histology after intermittent and daily administration for 8 weeks; type: in vivo; details: for Retinal cross-section morphology: 8 weeks
From the text: Histology and Immunohistochemistry—Histological procedures employed for the eye analyses as described in Maeda A, et al. supra.
as §2

[11] = Plasma retention of 9-cis-retinyl acetate metabolites after single gastric gavage; type: in vivo, C57/Bl6 mice; details: for Absorption (plasma levels of fatty acid 9-cis-retinyl esters and 9-cis-retinol): compared to canola and rapeseed oils, 50 mg/kg gavage
Protocol: as §1
Several different oil-based preparations were prepared to test the absorption levels of 9-cis-R-Ac in plasma. More specifically, a single 50 mg/kg dose of 9-cis-retinyl acetate (50 mg/kg) suspended in 4 different vehicle oils was administrated by gastric gavage to 5-week-old C57/Bl6 mice and retinoid levels were determined in the plasma thereafter (n=5 for each time point per group).

Lowest daily test dose evoking significant improvement in retinal function (Rpe65^−/− mice [1]): 1 mg/kg
9-cis-retinal in the eyes [2]: detected in a dose-dependent manner
9-cis-retinal in eyes ([3]; 1 mg/kg daily for 14 days): No 9-cis-retinal was detected
9-cis-retinal in eyes ([3]; 4 mg/kg daily for 14 days): 38 ± 4 pmol
9-cis-retinal in eyes ([3]; 12.5 mg/kg daily for 14 days): 95 ± 14 pmol
Fatty acid 9-cis-retinyl esters in eyes ([3]; 4 and 12.5 mg/kg/day groups, 14 days): 1 pmol/eye
Fatty acid 9-cis-retinyl esters in livers ([3]; daily dosing 14 days, C57Bl/6 and Rpe65^−/− mice): accumulate in a dose-dependent manner
9-cis-retinal in the retinas ([5]; day 4, all treated mice (1, 4, 12.5 mg/kg/day for 3 days)): detected
9-cis-retinal in the retinas ([5]; day 9, after 3 daily doses): No 9-cis-retinal was found
Duration of positive ERG effect after treatment (Rpe65^−/− mice [6]): 4 to 6 days
9-cis-retinol in eyes ([7]; single dose 50 mg/kg): 43 pmol/eye
11-cis-retinoids in eyes ([7]; single doses): No 11-cis-retinoids were detected
9-cis-retinal in the eye ([7]; single doses 2 and 4 mg/kg): trace levels
ERG effect of lower doses (Rpe65^−/− mice [8]): positive ERG effects
Lowest tested dose that provided significant ERG improvement (Rpe65^−/− mice [8]): 6.25 mg/kg
Dose sufficient for significant improvement in ERG responses over control (Rpe65^−/− mice [9]): 1 mg/kg
Plasma levels of all-trans-retinol and fatty acid all-trans-retinyl esters ([11]; among the test vehicles and during the 23 h test period): did not differ significantly
Absorption (plasma levels of fatty acid 9-cis-retinyl esters and 9-cis-retinol) ([11]; in soybean oil): best absorption
Absorption (plasma levels of fatty acid 9-cis-retinyl esters and 9-cis-retinol) ([11]; in sunflower oil): best absorption
Time of highest plasma levels of 9-cis-retinoids ([11]; single 50 mg/kg gastric gavage, C57/Bl6 mice): 3 h
SMILES: CC(=O)OC/C=C(C)/C=C/C=C(C)\C=C\C1=C(C)CCCC1(C)C [9-cis-R-Ac, 9-cis-retinyl acetate]
all-trans-retinol and 9-cis-retinol in eyes ([3]; daily dosing 14 days, any group): Neither all-trans-retinol nor 9-cis-retinol was found
Clinical side effects [4]: no obvious clinical side effects
Fatty acid 9-cis-retinyl esters in eyes ([7]; single doses, all analyzed eyes): No fatty acid 9-cis-retinyl esters were detected
Retinal cross-section morphology (Rpe65^−/− mice [10]; 1 mg/kg by either schedule, vs control mice): no significant change
Retinal cross-section morphology (Rpe65^−/− mice [10]; 4 mg/kg daily or 4 mg/kg intermittent): improvement of rod outer segment (ROS) morphology
Effect on retina (photoreceptor outer segment lengths, nuclei in outer nuclear layer) (Rpe65^−/− mice [10]; 8-week administration): dose-dependent protective effect
